Laboratory results as given in PubChem BioAssay AID330 (DTP/NCI, 2004).
Inconclusive results and toxic doses are left out.

System: P388 leukemia ip, CD2F1 mice, survival T/C
Test: NCI In Vivo Anticancer Drug Screen. Data for tumor model P388 Leukemia (intraperitoneal) in CD2F1 (CDF1) mice
Conditions: endpoint: median survival time, higher = longer survival
Summary of the method: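 Mice carrying the transplanted tumor received test compound or vehicle. Survival was recorded in each group, and the value is the treated-group measurement divided by that of the vehicle-treated control group.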

[1] = dose: 50.0 mg/kg/injection, schedule: Q04DX003 (ip), vehicle: saline
[2] = dose: 100.0 mg/kg/injection, schedule: Q04DX003 (ip), vehicle: saline
[3] = dose: 50.0 mg/kg/injection, schedule: Q01DX005 (ip), vehicle: saline with Tween-80
[4] = dose: 100.0 mg/kg/injection, schedule: Q01DX005 (ip), vehicle: saline with Tween-80
[5] = dose: 200.0 mg/kg/injection, schedule: Q01DX005 (ip), vehicle: saline with Tween-80
[6] = dose: 100.0 mg/kg/injection, schedule: Q01DX009 (ip), vehicle: saline with Tween-80
[7] = dose: 200.0 mg/kg/injection, schedule: Q01DX009 (ip), vehicle: saline with Tween-80

## CNCCSSCCN
dose: 25.0 mg/kg/injection, schedule: Q04DX003 (ip), vehicle: saline
  T/C: 100 % of control
[1]
  T/C: 90 % of control
[2]
  T/C: 86 % of control

## COc1cccc2c1C(=O)c1c(O)c3c(c(O)c1C2=O)CC(O)(/C(C)=N/NC(=O)CCCCCCCCC(=O)N/N=C(\C)C1(O)Cc2c(O)c4c(c(O)c2C(OC2CC(N)C(O)C(C)O2)C1)C(=O)c1c(OC)cccc1C4=O)CC3OC1CC(N)C(O)C(C)O1 (stereo unspecified)
dose: 3.13 mg/kg/injection, schedule: Q01DX009 (ip), vehicle: water
  T/C: 155 % of control
dose: 6.25 mg/kg/injection, schedule: Q01DX009 (ip), vehicle: water
  T/C: 174 % of control
dose: 12.5 mg/kg/injection, schedule: Q01DX009 (ip), vehicle: water
  T/C: 221 % of control
dose: 25.0 mg/kg/injection, schedule: Q01DX009 (ip), vehicle: water
  T/C: 99 % of control

## CC[Si](C=C1CCCCC1)(CC)CC
dose: 50.0 mg/kg/injection, schedule: Q01DX009 (ip), vehicle: Klucel (hydroxypropylcellulose) (HPC)
  T/C: 101 % of control
dose: 100.0 mg/kg/injection, schedule: Q01DX009 (ip), vehicle: Klucel (hydroxypropylcellulose) (HPC)
  T/C: 110 % of control
dose: 200.0 mg/kg/injection, schedule: Q01DX009 (ip), vehicle: Klucel (hydroxypropylcellulose) (HPC)
  T/C: 109 % of control

## CC(O)Cn1nnc2ccccc2c1=O (stereo unspecified)
[3]
  T/C: 107 % of control
[4]
  T/C: 105 % of control
[5]
  T/C: 112 % of control

## O=C1c2ccc(=O)[nH]c2C(=O)C2CC3=C(CCCC3)CC12 (stereo unspecified)
[3]
  T/C: 109 % of control
[4]
  T/C: 97 % of control
[5]
  T/C: 94 % of control

## CCCCCCCCCCCCCCCc1c(NC(C)(CC)[P+](=O)O)c(=O)n(C)n1C (stereo unspecified)
dose: 6.25 mg/kg/injection, schedule: Q01DX009 (ip), vehicle: saline
  T/C: 112 % of control
dose: 12.5 mg/kg/injection, schedule: Q01DX009 (ip), vehicle: saline
  T/C: 100 % of control
dose: 100.0 mg/kg/injection, schedule: Q01DX009 (ip), vehicle: saline
  T/C: 101 % of control

## Cc1cc2c3ccccc3[nH]c(=O)n2n1
[1]
  T/C: 101 % of control
[6]
  T/C: 100 % of control
dose: 100.0 mg/kg/injection, schedule: Q04DX003 (ip), vehicle: saline with Tween-80
  T/C: 110 % of control
[2]
  T/C: 101 % of control
[7]
  T/C: 110 % of control
dose: 200.0 mg/kg/injection, schedule: Q04DX003 (ip), vehicle: saline with Tween-80
  T/C: 120 % of control
dose: 200.0 mg/kg/injection, schedule: Q04DX003 (ip), vehicle: saline
  T/C: 105 % of control
dose: 400.0 mg/kg/injection, schedule: Q04DX003 (ip), vehicle: saline with Tween-80
  T/C: 100 % of control
dose: 400.0 mg/kg/injection, schedule: Q04DX003 (ip), vehicle: saline
  T/C: 98 % of control

## O=C(NC1CC1)c1ccccc1
dose: 25.0 mg/kg/injection, schedule: Q01DX009 (ip), vehicle: saline with Tween-80
  T/C: 96 % of control
dose: 50.0 mg/kg/injection, schedule: Q01DX009 (ip), vehicle: saline with Tween-80
  T/C: 100 % of control
[6]
  T/C: 87 % of control
[7]
  T/C: 87 % of control

## CC(=O)c1c(OCC(O)CN2CCN(C)CC2)cccc1OCC(O)CN1CCN(C)CC1 (stereo unspecified)
dose: 6.25 mg/kg/injection, schedule: Q01DX005 (ip), vehicle: saline
  T/C: 105 % of control
dose: 12.5 mg/kg/injection, schedule: Q01DX005 (ip), vehicle: saline
  T/C: 101 % of control
dose: 25.0 mg/kg/injection, schedule: Q01DX005 (ip), vehicle: saline
  T/C: 105 % of control

## Cc1c(O)c2c(c(O)c1Cc1ccc(CN)cc1)C(=O)c1ccccc1C2=O
dose: 12.5 mg/kg/injection, schedule: Q04DX003 (ip), vehicle: water
  T/C: 98 % of control
dose: 25.0 mg/kg/injection, schedule: Q04DX003 (ip), vehicle: water
  T/C: 90 % of control
dose: 50.0 mg/kg/injection, schedule: Q04DX003 (ip), vehicle: water
  T/C: 93 % of control
dose: 100.0 mg/kg/injection, schedule: Q04DX003 (ip), vehicle: water
  T/C: 103 % of control

## Cc1cccc(=O)[n-]1.Cc1cccc(=O)[n-]1.Cc1cccc(=O)[n-]1.Cc1cccc(=O)[n-]1.[Cu+].[Cu+].[Cu+].[Cu+]
dose: 12.5 mg/kg/injection, schedule: Q04DX002 (ip), vehicle: Klucel (hydroxypropylcellulose) (HPC)
  T/C: 108 % of control
dose: 25.0 mg/kg/injection, schedule: Q04DX002 (ip), vehicle: Klucel (hydroxypropylcellulose) (HPC)
  T/C: 109 % of control
dose: 50.0 mg/kg/injection, schedule: Q04DX002 (ip), vehicle: Klucel (hydroxypropylcellulose) (HPC)
  T/C: 100 % of control
dose: 100.0 mg/kg/injection, schedule: Q04DX002 (ip), vehicle: Klucel (hydroxypropylcellulose) (HPC)
  T/C: 108 % of control

## O/N=C/c1cc(I)cc(I)c1O
[3]
  T/C: 90 % of control
[4]
  T/C: 99 % of control
[5]
  T/C: 99 % of control
